What all share (format): functional
Assay [1] deals with Bacteria. The assay can be described thus: In vitro antibacterial activity was determined by 2 fold serial agar dilution method in gram negative resistant bacteria.
Assay [2] is described as follows: In vitro antibacterial activity was determined by 2 fold serial agar dilution method in gram positive resistant bacteria.
In assay [3] the test system is Bacteria. The assay can be described thus: In vitro antibacterial activity was determined by 2 fold serial agar dilution method with multilocular device in gram negative bacteria.
A short description of assay [4]: In vitro antibacterial activity was determined by 2 fold serial agar dilution method with multilocular device in gram positive bacteria.

Values after ≈ are worked out from the molar mass of the structure shown.

Eight molecules from ChEMBL document CHEMBL1122399, “Synthesis and antibacterial activities of new (alpha-hydrazinobenzyl)cephalosporins” (1983) can be followed below.

Consider `CC(=O)OCC1=C(C(=O)O)N2C(=O)[C@@H](NC(=O)C(c3ccccc3)N(C)N)C2SC1` (stereo partly specified), for which the MIC was over 100 µg/mL in the assay with Bacteria [1], 24.9 µg/mL (≈ 57.3 µM) in assay [2], 54.5 µg/mL (≈ 125 µM) in the assay with Bacteria [3] and 1.33 µg/mL (≈ 3.06 µM) in assay [4].
Take `CC1=C(C(=O)O)N2C(=O)[C@@H](NC(=O)C(NN)c3ccccc3)C2SC1` (stereo partly specified): the MIC in assay [2] is 62.9 µg/mL (≈ 174 µM); in the assay on Bacteria [3] it was over 100 µg/mL; in assay [4], 12.5 µg/mL (≈ 34.5 µM).
In the case of `CC1=C(C(=O)O)N2C(=O)[C@@H](NC(=O)[C@H](N)c3ccccc3)[C@H]2SC1` [CEPHALEXIN ANHYDROUS], the minimal inhibitory concentration (MIC) against Bacteria [1] was found to be 7.8 µg/mL (≈ 22.5 µM); in assay [2], 24.9 µg/mL (≈ 71.7 µM); with Bacteria [3], 5.7 µg/mL (≈ 16.4 µM); in assay [4], 0.58 µg/mL (≈ 1.67 µM).
The matching figures for `CC1=C(C(=O)O)N2C(=O)[C@@H](NC(=O)C(c3ccccc3)N(C)N)C2SC1` (stereo partly specified): over 100 µg/mL, 50 µg/mL (≈ 133 µM), 100 µg/mL (≈ 266 µM) and 6.74 µg/mL (≈ 17.9 µM).
The matching figures for `CC(=O)OCC1=C(C(=O)O)N2C(=O)[C@@H](NC(=O)C(NN)c3ccccc3)C2SC1` (stereo partly specified): over 100 µg/mL, 31.5 µg/mL (≈ 74.9 µM), 73.4 µg/mL (≈ 175 µM) and 1.68 µg/mL (≈ 4 µM).
Consider `N[C@@H](C(=O)N[C@@H]1C(=O)N2C(C(=O)O)=C(Cl)CS[C@H]12)c1ccccc1` [CEFACLOR ANHYDROUS], for which the MIC was 7.8 µg/mL (≈ 21.2 µM) against Bacteria [1], 15.7 µg/mL (≈ 42.7 µM) in assay [2], 1 µg/mL (≈ 2.72 µM) in the assay on Bacteria [3] and 0.16 µg/mL (≈ 0.435 µM) in assay [4].
On the same counts, the results for `NNC(C(=O)N[C@@H]1C(=O)N2C(C(=O)O)=C(Cl)CSC12)c1ccccc1` (stereo partly specified) are 50 µg/mL (≈ 131 µM), 31.4 µg/mL (≈ 82 µM), 21.4 µg/mL (≈ 55.9 µM) and 1.33 µg/mL (≈ 3.47 µM).
On the same counts, the results for `CC(=O)OCC1=C(C(=O)O)N2C(=O)[C@@H](NC(=O)[C@H](N)c3ccccc3)[C@H]2SC1` [CEPHALOGLYCIN] are 79.3 µg/mL (≈ 196 µM), 19.8 µg/mL (≈ 48.8 µM), 8.5 µg/mL (≈ 21 µM) and 1.33 µg/mL (≈ 3.28 µM).
